From patent publication US20230278972A1, “SUBSTITUTED HALOALKYL SULFONANILIDE HERBICIDES” (FMC Corporation, priority 2020, published 2023)

Experiments:
Format in all cases: in vivo
[1] = test system: kochia (Bassia scoparia); assay: Test A postemergence, kochia; details: Postemergence, 0 to 100 scale (0 no effect, 100 complete control); for Plant response rating, Kochia: 125 g ai/ha, visual injury approx. 10 days; for Kochia plant response rating: 500 g ai/ha, visual injury vs untreated controls after approx. 10 days
In short: (§1)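 After sowing into a sand-amended loam, pots for the preemergence test were treated by spraying directly onto soil. In parallel, seedlings at the one- to two-leaf stage and 2 to 10 cm tall were treated postemergence with the identical surfactant-containing formulation.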

[2] = test system: barnyardgrass (Echinochloa crus-galli); assay: Test A postemergence, barnyardgrass; details: Postemergence, 0 to 100 scale (0 no effect, 100 complete control); for Plant response rating, Barnyardgrass: 125 g ai/ha, visual injury approx. 10 days; for Barnyardgrass plant response rating: 500 g ai/ha, visual injury vs untreated controls after approx. 10 days
In short: (§2)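 Formulated with a surfactant in a non-phytotoxic solvent, compounds are applied to loam–sand pots, either to bare soil immediately after seeding (preemergence) or to seedlings of 2 to 10 cm bearing one to two leaves (postemergence).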

[3] = test system: pigweed (Amaranthus retroflexus); assay: Test A postemergence, pigweed; details: Postemergence, 0 to 100 scale (0 no effect, 100 complete control); for Plant response rating, Pigweed: 125 g ai/ha, visual injury approx. 10 days; for Pigweed plant response rating: 500 g ai/ha, visual injury vs untreated controls after approx. 10 days
In short: as §1

[4] = test system: barnyardgrass (Echinochloa crus-galli); assay: Test A preemergence, barnyardgrass; details: Preemergence; for Barnyardgrass plant response rating: 125 g ai/ha, visual injury on 0 to 100 scale (0 no effect, 100 complete control), approximately 10 days; for Plant response rating, Barnyardgrass: 500 g ai/ha, 0 to 100 scale (0 no effect, 100 complete control)
In short: as §1

[5] = test system: pigweed (Amaranthus retroflexus); assay: Test A preemergence, pigweed; details: for Pigweed plant response rating: 125 g ai/ha, visual injury on 0 to 100 scale (0 no effect, 100 complete control), approximately 10 days; for Plant response rating, Pigweed: 500 g ai/ha, 0 to 100 scale (0 no effect, 100 complete control)
In short: as §2

[6] = test system: ragweed (common ragweed, Ambrosia artemisiifolia); assay: Test A preemergence, ragweed; details: Preemergence; for Ragweed plant response rating: 125 g ai/ha, visual injury on 0 to 100 scale (0 no effect, 100 complete control), approximately 10 days; for Plant response rating, Ragweed: 500 g ai/ha, 0 to 100 scale (0 no effect, 100 complete control)
In short: as §1

[7] = test system: Ryegrass, Italian (Italian ryegrass, Lolium multiflorum); assay: Test A postemergence, Ryegrass, Italian; details: Postemergence, 0 to 100 scale (0 no effect, 100 complete control); for Plant response rating, Ryegrass, Italian: 125 g ai/ha, visual injury approx. 10 days; for Ryegrass, Italian plant response rating: 500 g ai/ha, visual injury vs untreated controls after approx. 10 days
In short: as §1

[8] = test system: Foxtail, Giant (giant foxtail, Setaria faberi); assay: Test A preemergence, Foxtail, Giant; details: Preemergence; for Foxtail, Giant plant response rating: 125 g ai/ha, visual injury on 0 to 100 scale (0 no effect, 100 complete control), approximately 10 days; for Plant response rating, Foxtail, Giant: 500 g ai/ha, 0 to 100 scale (0 no effect, 100 complete control)
In short: as §1

[9] = test system: corn (Zea mays); assay: Test A postemergence, corn; details: Postemergence, 0 to 100 scale (0 no effect, 100 complete control); for Plant response rating, Corn: 125 g ai/ha, visual injury approx. 10 days; for Corn plant response rating: 500 g ai/ha, visual injury vs untreated controls after approx. 10 days
In short: as §1

[10] = test system: kochia (Bassia scoparia); assay: Test A preemergence, kochia; details: Preemergence; for Kochia plant response rating: 125 g ai/ha, visual injury on 0 to 100 scale (0 no effect, 100 complete control), approximately 10 days; for Plant response rating, Kochia: 500 g ai/ha, 0 to 100 scale (0 no effect, 100 complete control)
In short: as §1

[11] = test system: blackgrass (Alopecurus myosuroides); assay: Test A postemergence, blackgrass; details: Postemergence, 0 to 100 scale (0 no effect, 100 complete control); for Plant response rating, Blackgrass: 125 g ai/ha, visual injury approx. 10 days; for Blackgrass plant response rating: 500 g ai/ha, visual injury vs untreated controls after approx. 10 days
In short: as §1

[12] = test system: Ryegrass, Italian (Italian ryegrass, Lolium multiflorum); assay: Test A preemergence, Ryegrass, Italian; details: Preemergence; for Ryegrass, Italian plant response rating: 125 g ai/ha, visual injury on 0 to 100 scale (0 no effect, 100 complete control), approximately 10 days; for Plant response rating, Ryegrass, Italian: 500 g ai/ha, 0 to 100 scale (0 no effect, 100 complete control)
In short: as §1

[13] = test system: galium (catchweed bedstraw, Galium aparine); assay: Test A postemergence, galium; details: Postemergence, 0 to 100 scale (0 no effect, 100 complete control); for Plant response rating, Galium: 125 g ai/ha, visual injury approx. 10 days; for Galium plant response rating: 500 g ai/ha, visual injury vs untreated controls after approx. 10 days
In short: as §2

[14] = test system: ragweed (common ragweed, Ambrosia artemisiifolia); assay: Test A postemergence, ragweed; details: Postemergence, 0 to 100 scale (0 no effect, 100 complete control); for Plant response rating, Ragweed: 125 g ai/ha, visual injury approx. 10 days; for Ragweed plant response rating: 500 g ai/ha, visual injury vs untreated controls after approx. 10 days
In short: as §1

[15] = test system: wheat (Triticum aestivum); assay: Test A postemergence, wheat; details: Postemergence, 0 to 100 scale (0 no effect, 100 complete control); for Plant response rating, Wheat: 125 g ai/ha, visual injury approx. 10 days; for Wheat plant response rating: 500 g ai/ha, visual injury vs untreated controls after approx. 10 days
In short: as §2

[16] = test system: Foxtail, Giant (giant foxtail, Setaria faberi); assay: Test A postemergence, Foxtail, Giant; details: Postemergence, 0 to 100 scale (0 no effect, 100 complete control); for Plant response rating, Foxtail, Giant: 125 g ai/ha, visual injury approx. 10 days; for Foxtail, Giant plant response rating: 500 g ai/ha, visual injury vs untreated controls after approx. 10 days
In short: as §1

| Structure (SMILES) | Plant response rating, Kochia [1] | Kochia plant response rating [1] | Plant response rating, Barnyardgrass [2] | Barnyardgrass plant response rating [2] | Plant response rating, Pigweed [3] | Pigweed plant response rating [3] | Barnyardgrass plant response rating [4] | Plant response rating, Barnyardgrass [4] | Pigweed plant response rating [5] | Plant response rating, Pigweed [5] | Ragweed plant response rating [6] | Plant response rating, Ragweed [6] | Plant response rating, Ryegrass, Italian [7] | Ryegrass, Italian plant response rating [7] | Foxtail, Giant plant response rating [8] | Plant response rating, Foxtail, Giant [8] | Plant response rating, Corn [9] | Corn plant response rating [9] | Kochia plant response rating [10] | Plant response rating, Kochia [10] | other results |
| --- | --- | --- | --- | --- | --- | --- | --- | --- | --- | --- | --- | --- | --- | --- | --- | --- | --- | --- | --- | --- | --- |
| COc1cc(-c2cc(NS(=O)(=O)C(F)(F)F)c(C)cc2C)c(=O)n(C)n1 [Compound 70] | 0 | 0 | 0 | 50 | 0 | 20 | 90 | 100 | 80 | 80 | 10 | 70 | 0 | 0 | 10 | 90 | 0 | 0 | 0 | 0 | Plant response rating, Blackgrass [11]: 30; Blackgrass plant response rating [11]: 30; Ryegrass, Italian plant response rating [12]: 50; Plant response rating, Ryegrass, Italian [12]: 60; Plant response rating, Galium [13]: 60; Galium plant response rating [13]: 80; Plant response rating, Ragweed [14]: 0; Ragweed plant response rating [14]: 0; Plant response rating, Wheat [15]: 0; Wheat plant response rating [15]: 30; Plant response rating, Foxtail, Giant [16]: 0; Foxtail, Giant plant response rating [16]: 20 |
| Cc1cc(C)c(-c2cc(C(F)(F)F)nn(C)c2=O)cc1NS(=O)(=O)C(F)(F)F [Compound 71] | 20 | 40 | 0 | 80 | 0 | 60 | 0 | 100 | 40 | 60 | 10 | 60 | 70 | 80 | 80 | 100 | 0 | 30 | 80 | 40 | Plant response rating, Blackgrass [11]: 0; Blackgrass plant response rating [11]: 70; Ryegrass, Italian plant response rating [12]: 70; Plant response rating, Ryegrass, Italian [12]: 100; Plant response rating, Galium [13]: 50; Galium plant response rating [13]: 80; Plant response rating, Ragweed [14]: 0; Ragweed plant response rating [14]: 0; Plant response rating, Wheat [15]: 40; Wheat plant response rating [15]: 70; Plant response rating, Foxtail, Giant [16]: 0; Foxtail, Giant plant response rating [16]: 90 |
| Cc1cc(C)c(-c2ccnn(CC(C)C)c2=O)cc1NS(=O)(=O)C(F)(F)F [Compound 77] | 0 | 10 | 0 | 20 | 0 | 0 | 90 | 90 | 20 | 30 | 0 | 20 | 0 | 0 | 90 | 100 | 0 | 60 | 0 | 0 | Plant response rating, Blackgrass [11]: 0; Blackgrass plant response rating [11]: 0; Ryegrass, Italian plant response rating [12]: 0; Plant response rating, Ryegrass, Italian [12]: 90; Plant response rating, Galium [13]: 0; Galium plant response rating [13]: 40; Plant response rating, Ragweed [14]: 0; Ragweed plant response rating [14]: 10; Plant response rating, Wheat [15]: 0; Wheat plant response rating [15]: 70; Plant response rating, Foxtail, Giant [16]: 0; Foxtail, Giant plant response rating [16]: 40 |
| Cc1cc(C)c(-c2ccnn(C(C)C)c2=O)cc1NS(=O)(=O)C(F)(F)F [Compound 78] | 0 | 20 | 40 | 70 | 0 | 50 | 90 | 100 | 30 | 90 | 80 | 90 | 40 | 60 | 100 | 100 | 0 | 50 | 0 | 60 | Plant response rating, Blackgrass [11]: 0; Blackgrass plant response rating [11]: 30; Ryegrass, Italian plant response rating [12]: 100; Plant response rating, Ryegrass, Italian [12]: 100; Plant response rating, Galium [13]: 60; Galium plant response rating [13]: 90; Plant response rating, Ragweed [14]: 0; Ragweed plant response rating [14]: 40; Plant response rating, Wheat [15]: 0; Wheat plant response rating [15]: 70; Plant response rating, Foxtail, Giant [16]: 70; Foxtail, Giant plant response rating [16]: 90 |
